Laboratory results reported in patent US8207156B2, “Substituted pyrazoline compounds, their preparation and use as medicaments” (Laboratorios Del Dr. Esteve, S.A., priority 2005, dated 2012).

Target: T1, CB1 receptor (UniProt P20272)
T1 construct: other: compound at 10^−7 M; radioligand [3H]-CP55940; other: compound at 10^−8 M
Test: In-vitro determination of affinity to CB1/CB2-receptors (radioligand [3H]-CP55940 binding)
Settings: for Inhibition [%], 10^−7 M: compound at 10^−7 M; for Inhibition [%], 10^−8 M: compound at 10^−8 M
Method: The in-vitro determination of the affinity of the inventive substituted pyrazoline compounds to CB1/CB2-Rezeptors is carried out as described in the publication of Ruth A. Ross, Heather C. Brockie et al., “Agonist-inverse agonist characterization at CB1 and CB2 cannabinoid receptors of L-759633, L759656 and AM630”, British Journal of Pharmacology, 126, 665-672, (1999), whereby the transfected human CB1 and CB2 receptors of Receptor Biology, Inc. are used. The radioligand used for both receptors is [^3H]-CP55940. The respective parts of the description is hereby incorporated by reference and forms part of the present disclosure.
Binding affinity to CB1 receptor was evaluated according to a modification of the method described by Govaerts et al., Eur J Pharmac Sci 23, 233-243 (2004). The respective parts of the description is hereby incorporated by reference and forms part of the present disclosure.
Briefly, cerebellum from male wistar rats (250-300 g) were carefully dissected on ice and homogenates were prepared with Potter-Helveheim in a cold 50 mM Tris-HCl solution containing 5 mM MgCl2, 1 mM EDTA and 0.25 M sucrose, pH 7.4. The suspension was centrifuged at 1,000×g for 5 minutes. The supernatants were collected and centrifuged 50,000×g for 15 minutes. The resulting pellets were then resuspended in Tris-HCl buffer without sucrose, homogenized and incubated for 15 min at 37° C. in an orbital shaker bath and centrifuged again at 50,000×g for 15 min. Pellets were weighted, resuspended in Tris-HCl buffer without sucrose, homogenized with Ultraturrax at 13,500 rpm for 3×5 seconds and alicuoted in 0.9 ml volumes in Eppendorf tubes. Alicuotes were centrifuged at 20,800×g for 5 minutes, supernatants discarded and pellets were frozen at −80° C. until use. Total protein concentration was determined using the Bio-Rad Lowry method based kit. Competitive binding experiments were performed in presence of 1 nM [^3H]-CP 55,940 in siliconized glass tubes containing 100 μg protein/tube resuspended in 1 ml final volume of 50 mM Tris-HCl, 5 mM MgCl2, 1 mM EDTA, 0.5% (w/v) bovine serum albumin, pH 7.4. Compounds were present at various concentrations and the non specific binding was determined in the presence of 10 μM HU-210. After 1 hour incubation at 30° C., the suspension was rapidly filtered through 0.5% PEI pre-treated GF/B fiber filters on a 96-well harvester and washed 3 times with 3 ml ice-cold binding buffer without bovine serum albumin. Radioactivity on filters was measured with Wallac Winspectral 1414 counter by liquid scintillation in 6 ml Ecoscint H (National Diagnostics, U.K.). Assays were made in triplicates.
Binding data were analyzed by non-linear regression with the software GraphPad Prism Version 3.03.

Row | SMILES | Inhibition [%], 10^−7 M | Inhibition [%], 10^−8 M
1 | COC[C@H]1CCCN1NC(=O)C1=NN(c2ccc(Cl)cc2Cl)C(c2ccc(Cl)cc2)C1 (stereo partly shown) [Example 13, 5-(4-Chloro-phenyl)-1-(2,4-dichloro-phenyl)-4,5-dihydro-1H-pyrazole-3-carboxylic acid (2-methoxymethyl-pyrrolidin-1-yl)-amide] | 31.8% | 14.3%
2 | CCCCNC(=O)C1=NN(c2ccc(Cl)cc2Cl)C(c2ccc(Cl)cc2)C1 (stereo not shown) [Example 72, 5-(4-Chloro-phenyl)-1-(2,4-dichloro-phenyl)-4,5-dihydro-1H-pyrazole-3-carboxylic acid butylamide] | 19.6% | −10.2%
3 | CN(C)CCCNC(=O)C1=NN(c2ccc(Cl)cc2Cl)C(c2ccc(Cl)cc2)C1 (stereo not shown) [Example 73, 5-(4-Chloro-phenyl)-1-(2,4-dichloro-phenyl)-4,5-dihydro-1H-pyrazole-3-carboxylic acid (3-dimethylamino-propyl)-amide] | −18.9% | 15.7%
4 | O=C(NCCC1CCCC1)C1=NN(c2ccc(Cl)cc2Cl)C(c2ccc(Cl)cc2)C1 (stereo not shown) [Example 87, 5-(4-Chloro-phenyl)-1-(2,4-dichloro-phenyl)-4,5-dihydro-1H-pyrazole-3-carboxylic acid (2-cyclopentyl-ethyl)-amide] | 15.2% | −2.4%
5 | COc1ccc(C2CC(C(=O)O)=NN2c2ccc(Cl)cc2Cl)cc1 (stereo not shown) [Example 127, 1-(2,4-Dichloro-phenyl)-5-(4-methoxy-phenyl)-4,5-dihydro-1H-pyrazole-3-carboxylic acid] | 7.8% | 7.4%
6 | COc1ccc(C2CC(C(=O)NC3CCCCCC3)=NN2c2ccc(Cl)cc2Cl)cc1 (stereo not shown) [Example 132, 5-(4-methoxyphenyl)-1-(2,4-dichloro-phenyl)-4,5-dihydro-1H-pyrazole-3-carboxylic acid cycloheptylamide] | 37.8% | 18.2%
7 | Cl.O=C(NN1CCCCCCC1)C1=NN(c2ccc(Cl)cc2Cl)C(c2ccc(Cl)cc2)C1 (stereo not shown) [Example 145, 5-(4-Chloro-phenyl)-1-(2,4-dichloro-phenyl)-4,5-dihydro-1H-pyrazole-3-carboxylic acid azocan-1-ylamide hydrochloride] | 57.6% | 12.3%
8 | COc1ccc(C2CC(C(=O)NN3CCCCCCC3)=NN2c2ccc(Cl)cc2Cl)cc1 (stereo not shown) [Example 148, 5-(4-methoxy-phenyl)-1-(2,4-dichloro-phenyl)-4,5-dihydro-1H-pyrazole-3-carboxylic acid azocan-1-ylamide] | 80.3% | 56.1%
9 | Cl.O=C(NN1CCCCC1)C1=NN(c2ccc(Cl)cc2Cl)C(c2ccc(O)cc2)C1 (stereo not shown) [Example 172, 1-(2,4-Dichloro-phenyl)-5-(4-hydroxy-phenyl)-4,5-dihydro-1H-pyrazole-3-carboxylic acid piperidin-1-ylamide hydrochloride] | 1.4% | 5.6%
10 | Cl.O=C(NN1CCCCCCC1)C1=NN(c2ccc(Cl)cc2Cl)[C@@H](c2ccc(Cl)cc2)C1 [Example 176, (R)-5-(4-Chloro-phenyl)-1-(2,4-dichloro-phenyl)-4,5-dihydro-1H-pyrazole-3-carboxylic acid azocan-1-ylamide hydrochloride] | 71.3% | 29.5%
11 | Cl.O=C(NN1CCCCCCC1)C1=NN(c2ccc(Cl)cc2Cl)[C@H](c2ccc(Cl)cc2)C1 [Example 177, (S)-5-(4-Chloro-phenyl)-1-(2,4-dichloro-phenyl)-4,5-dihydro-1H-pyrazole-3-carboxylic acid azocan-1-ylamide hydrochloride] | 22.2% | −5.4%
